Measurements reported in the CheMixHub viscosity set.
± gives the uncertainty stated by the source.

Test: xn = mol fraction of the nth substance listed

ClC(Cl)(Cl)Cl + c1ccccc1
Conditions	viscosity [mPa·s]
293.25 K, 101 kPa, x1 = 0.4	0.8063 ± 0.021
293.25 K, 101 kPa, x1 = 0.5	0.8381 ± 0.022
293.25 K, 101 kPa, x1 = 0.8	0.943 ± 0.025
293.35 K, 101 kPa, x1 = 0.2	0.7416 ± 0.02
298 K, 101 kPa, x1 = 0.1367	0.64 ± 0.018
298 K, 101 kPa, x1 = 0.1809	0.653 ± 0.018
298 K, 101 kPa, x1 = 0.2176	0.664 ± 0.018
298 K, 101 kPa, x1 = 0.2521	0.672 ± 0.018
298 K, 101 kPa, x1 = 0.2882	0.68 ± 0.018
298 K, 101 kPa, x1 = 0.3188	0.688 ± 0.018
298 K, 101 kPa, x1 = 0.3463	0.697 ± 0.018
298 K, 101 kPa, x2 = 0.189	0.8814 ± 0.012
298 K, 101 kPa, x2 = 0.2701	0.8626 ± 0.012
298 K, 101 kPa, x2 = 0.344	0.845 ± 0.011
298 K, 101 kPa, x2 = 0.4734	0.8084 ± 0.011
298 K, 101 kPa, x2 = 0.583	0.7751 ± 0.011
298 K, 101 kPa, x2 = 0.6318	0.7601 ± 0.01
298 K, 101 kPa, x2 = 0.6771	0.7455 ± 0.01
298 K, 101 kPa, x2 = 0.7194	0.7309 ± 0.01
298 K, 101 kPa, x2 = 0.7588	0.7176 ± 0.01
298 K, 101 kPa, x2 = 0.8303	0.6917 ± 0.0097
298 K, 101 kPa, x2 = 0.8935	0.667 ± 0.0094
298 K, 101 kPa, x2 = 0.9224	0.6567 ± 0.0092
298 K, 101 kPa, x2 = 0.9497	0.6424 ± 0.0091
298 K, 101.3 kPa, x1 = 0.1472	0.655 ± 0.007
298 K, 101.3 kPa, x1 = 0.2844	0.69 ± 0.007
298 K, 101.3 kPa, x1 = 0.4778	0.744 ± 0.007
298 K, 101.3 kPa, x1 = 0.6302	0.79 ± 0.008
298 K, 101.3 kPa, x1 = 0.8302	0.842 ± 0.008
298.15 K, 101 kPa, x1 = 0.0951	0.6268 ± 0.0054
298.15 K, 101 kPa, x1 = 0.169	0.6474 ± 0.0056
298.15 K, 101 kPa, x1 = 0.2348	0.6652 ± 0.017
298.15 K, 101 kPa, x1 = 0.2559	0.6726 ± 0.0058
298.15 K, 101 kPa, x1 = 0.3734	0.7073 ± 0.0061
298.15 K, 101 kPa, x1 = 0.4835	0.7352 ± 0.019
298.15 K, 101 kPa, x1 = 0.4917	0.7429 ± 0.0063
298.15 K, 101 kPa, x1 = 0.5951	0.7742 ± 0.0066
298.15 K, 101 kPa, x1 = 0.6135	0.7803 ± 0.0066
298.15 K, 101 kPa, x1 = 0.7561	0.8236 ± 0.007
298.15 K, 101 kPa, x1 = 0.7767	0.8291 ± 0.021
298.15 K, 101 kPa, x1 = 0.9264	0.8783 ± 0.0074
298.15 K, 101 kPa, x2 = 0.1022	0.8965 ± 0.0088
298.15 K, 101 kPa, x2 = 0.2	0.832 ± 0.0083
298.15 K, 101 kPa, x2 = 0.2062	0.8621 ± 0.0086
298.15 K, 101 kPa, x2 = 0.2386	0.808 ± 0.01
298.15 K, 101 kPa, x2 = 0.3055	0.8356 ± 0.0084
298.15 K, 101 kPa, x2 = 0.4	0.773 ± 0.0078
298.15 K, 101 kPa, x2 = 0.4022	0.8053 ± 0.0082
298.15 K, 101 kPa, x2 = 0.5051	0.7709 ± 0.008
298.15 K, 101 kPa, x2 = 0.5755	0.706 ± 0.009
298.15 K, 101 kPa, x2 = 0.6	0.714 ± 0.0072
298.15 K, 101 kPa, x2 = 0.604	0.7357 ± 0.0078
298.15 K, 101 kPa, x2 = 0.7006	0.7062 ± 0.0076
298.15 K, 101 kPa, x2 = 0.736	0.66 ± 0.009
298.15 K, 101 kPa, x2 = 0.8	0.658 ± 0.0067
298.15 K, 101 kPa, x2 = 0.8004	0.6785 ± 0.0075
298.15 K, 101 kPa, x2 = 0.8991	0.6415 ± 0.0073
298.15 K, 101.33 kPa, x1 = 0.125	0.6346 ± 0.017
298.15 K, 101.33 kPa, x1 = 0.2348	0.6652 ± 0.017
298.15 K, 101.33 kPa, x1 = 0.4835	0.7352 ± 0.019
298.15 K, 101.33 kPa, x1 = 0.5	0.7404 ± 0.019
298.15 K, 101.33 kPa, x1 = 0.65	0.7872 ± 0.021
298.15 K, 101.33 kPa, x1 = 0.7767	0.8291 ± 0.022
298.15 K, 101.33 kPa, x1 = 0.9	0.8691 ± 0.023
302.65 K, 101 kPa, x1 = 0.4	0.707 ± 0.019
302.65 K, 101 kPa, x1 = 0.5	0.7278 ± 0.019
303.15 K, 101 kPa, x2 = 0.1022	0.8407 ± 0.0084
303.15 K, 101 kPa, x2 = 0.2062	0.8084 ± 0.0082
303.15 K, 101 kPa, x2 = 0.3055	0.7825 ± 0.0081
303.15 K, 101 kPa, x2 = 0.4022	0.7545 ± 0.0079
303.15 K, 101 kPa, x2 = 0.5051	0.7209 ± 0.0077
303.15 K, 101 kPa, x2 = 0.604	0.688 ± 0.0076
303.15 K, 101 kPa, x2 = 0.7006	0.6616 ± 0.0074
303.15 K, 101 kPa, x2 = 0.8004	0.6348 ± 0.0073
303.15 K, 101 kPa, x2 = 0.8991	0.6047 ± 0.0071
303.25 K, 101 kPa, x1 = 0.8	0.8132 ± 0.022
303.35 K, 101 kPa, x1 = 0.6	0.7543 ± 0.02
303.65 K, 101 kPa, x1 = 0.2	0.6404 ± 0.017
308 K, 101 kPa, x2 = 0.189	0.7518 ± 0.01
308 K, 101 kPa, x2 = 0.2701	0.7355 ± 0.01
308 K, 101 kPa, x2 = 0.344	0.7202 ± 0.01
308 K, 101 kPa, x2 = 0.4734	0.6919 ± 0.0097
308 K, 101 kPa, x2 = 0.583	0.6652 ± 0.0094
308 K, 101 kPa, x2 = 0.6318	0.6524 ± 0.0092
308 K, 101 kPa, x2 = 0.6771	0.6391 ± 0.009
308 K, 101 kPa, x2 = 0.7194	0.627 ± 0.0089
308 K, 101 kPa, x2 = 0.7588	0.6159 ± 0.0088
308 K, 101 kPa, x2 = 0.8303	0.5939 ± 0.0085
308 K, 101 kPa, x2 = 0.8935	0.5753 ± 0.0083
308 K, 101 kPa, x2 = 0.9224	0.5661 ± 0.0082
308 K, 101 kPa, x2 = 0.9497	0.5573 ± 0.0081
308.15 K, 101 kPa, x2 = 0.1022	0.7881 ± 0.0081
308.15 K, 101 kPa, x2 = 0.2062	0.758 ± 0.0079
308.15 K, 101 kPa, x2 = 0.3055	0.732 ± 0.0078
308.15 K, 101 kPa, x2 = 0.4022	0.7062 ± 0.0077
308.15 K, 101 kPa, x2 = 0.5051	0.6748 ± 0.0075
308.15 K, 101 kPa, x2 = 0.604	0.6434 ± 0.0073
308.15 K, 101 kPa, x2 = 0.7006	0.62 ± 0.0072
308.15 K, 101 kPa, x2 = 0.8004	0.5929 ± 0.007
308.15 K, 101 kPa, x2 = 0.8991	0.5655 ± 0.0069
312.15 K, 101 kPa, x1 = 0.5	0.6431 ± 0.017
312.35 K, 101 kPa, x1 = 0.4	0.6172 ± 0.016
312.35 K, 101 kPa, x1 = 0.6	0.6695 ± 0.018
312.35 K, 101 kPa, x1 = 0.8	0.7173 ± 0.019
312.65 K, 101 kPa, x1 = 0.2	0.5692 ± 0.015
313.15 K, 101 kPa, x2 = 0.1022	0.7415 ± 0.0078
313.15 K, 101 kPa, x2 = 0.2062	0.7096 ± 0.0077
313.15 K, 101 kPa, x2 = 0.3055	0.6862 ± 0.0076
313.15 K, 101 kPa, x2 = 0.4022	0.659 ± 0.0074
313.15 K, 101 kPa, x2 = 0.5051	0.6313 ± 0.0073
313.15 K, 101 kPa, x2 = 0.604	0.6024 ± 0.0071
313.15 K, 101 kPa, x2 = 0.7006	0.58 ± 0.007
313.15 K, 101 kPa, x2 = 0.8004	0.5544 ± 0.0068
313.15 K, 101 kPa, x2 = 0.8991	0.5291 ± 0.0067
318 K, 101 kPa, x2 = 0.189	0.6483 ± 0.0092
318 K, 101 kPa, x2 = 0.2701	0.6346 ± 0.009
318 K, 101 kPa, x2 = 0.344	0.6217 ± 0.0088
318 K, 101 kPa, x2 = 0.4734	0.599 ± 0.0086
318 K, 101 kPa, x2 = 0.583	0.5775 ± 0.0083
318 K, 101 kPa, x2 = 0.6318	0.5665 ± 0.0082
318 K, 101 kPa, x2 = 0.6771	0.5566 ± 0.0081
318 K, 101 kPa, x2 = 0.7194	0.5469 ± 0.008
318 K, 101 kPa, x2 = 0.7588	0.5373 ± 0.0078
318 K, 101 kPa, x2 = 0.8303	0.5209 ± 0.0076
318 K, 101 kPa, x2 = 0.8935	0.5053 ± 0.0075
318 K, 101 kPa, x2 = 0.9224	0.4992 ± 0.0074
318 K, 101 kPa, x2 = 0.9497	0.492 ± 0.0073
318 K, 101.3 kPa, x1 = 0.1399	0.5125 ± 0.02
318 K, 101.3 kPa, x1 = 0.2838	0.5478 ± 0.021
318 K, 101.3 kPa, x1 = 0.4793	0.6011 ± 0.023
318 K, 101.3 kPa, x1 = 0.6289	0.6411 ± 0.024
318 K, 101.3 kPa, x1 = 0.8405	0.6993 ± 0.026
322.25 K, 101 kPa, x1 = 0.2	0.5085 ± 0.014
